Source: patent US5789404A, “3-substituted 1-arylindole compounds” (H. Lundbeck A/S, priority 1993, dated 1998)
Where a name gives a salt, the structure may show the parent alone. Read-outs that look alike come from different tables or passages of the source.

Experiments:
[1] = target: T1, 5-HT2 receptors (Rattus norvegicus, UniProt P14842); assay: Inhibition of ^3 H-Ketanserin Binding to 5-HT2 Receptors in Rat Cortex in vitro
T1 construct: 5-HT2 Receptors in Rat Cortex in vitro; from tissue; host or cells: rat cortex membranes
T1 sequence (P14842 whole entry): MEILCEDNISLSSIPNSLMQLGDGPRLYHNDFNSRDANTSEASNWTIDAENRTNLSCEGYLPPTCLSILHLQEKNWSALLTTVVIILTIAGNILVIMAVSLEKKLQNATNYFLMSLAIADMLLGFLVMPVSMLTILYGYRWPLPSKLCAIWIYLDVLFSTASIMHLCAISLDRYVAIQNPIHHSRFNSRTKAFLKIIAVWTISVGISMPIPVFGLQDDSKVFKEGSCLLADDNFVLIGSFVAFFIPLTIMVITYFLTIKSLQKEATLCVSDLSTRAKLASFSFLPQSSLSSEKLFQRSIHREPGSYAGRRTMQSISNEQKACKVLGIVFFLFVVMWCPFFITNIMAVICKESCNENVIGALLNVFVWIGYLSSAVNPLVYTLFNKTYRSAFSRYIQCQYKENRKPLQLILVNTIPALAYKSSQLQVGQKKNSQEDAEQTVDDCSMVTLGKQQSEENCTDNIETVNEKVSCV
Experimental: Inhibition of ^3 H-Ketanserin Binding to 5-HT2 Receptors in Rat Cortex in vitro
By this method the inhibition by drugs of the binding of ^3 H-Ketanserin (0,5 nM) to 5-HT2 receptors in membranes from rat is determined in vitro. The method is described in Hyttel, Pharmacol. & Toxicol.

[2] = target: dopamine D2 receptors (Rattus norvegicus, UniProt P61169); assay: biochemical; format: binding
Sequence of dopamine D2 receptors (P61169 whole entry): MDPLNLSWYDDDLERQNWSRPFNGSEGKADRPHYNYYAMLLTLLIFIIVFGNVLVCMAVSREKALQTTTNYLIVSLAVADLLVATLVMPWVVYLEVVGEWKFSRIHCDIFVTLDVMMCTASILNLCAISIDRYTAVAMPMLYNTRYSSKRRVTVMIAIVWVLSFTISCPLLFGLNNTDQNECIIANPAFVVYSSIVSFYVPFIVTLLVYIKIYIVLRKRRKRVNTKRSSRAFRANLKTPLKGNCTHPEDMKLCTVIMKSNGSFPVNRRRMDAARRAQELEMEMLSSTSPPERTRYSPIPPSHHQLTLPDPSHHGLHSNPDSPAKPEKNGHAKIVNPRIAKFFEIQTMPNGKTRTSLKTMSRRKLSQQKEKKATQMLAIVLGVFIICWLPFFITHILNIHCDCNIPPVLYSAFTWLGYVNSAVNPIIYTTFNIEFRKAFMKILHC
Experimental: Inhibition of ^3 H-Spiroperidol Binding to Dopamine D2 Receptors in Rat Corpus Striatum in vitro
By this method the inhibition by drugs of the binding of ^3 H-spiroperidol (0.5 nM) to dopamine D2 receptors in membranes from rat corpus striatum is determined in vitro.

[3] = ^3 H-Ketanserin 0,5 nM, rat cortex membranes, read-out: 5-HT2 binding ^3 H ketanserin, IC50
[4] = ^3 H-spiroperidol 0.5 nM, rat corpus striatum membranes, read-out: Dopamin D2 binding ^3 H spiroperidol, IC50
[5] = read-out: Dopamin D2 binding ^3 H spiroperidol, IC50

5-Chloro-1-(4-fluorophenyl)-3-[3-(4-piperidinyl)propyl]-1H-indole hydrochloride [Compound 3d]
IC50 [1, 3]: 110 nM
IC50 [2, 4]: 21 nM

CN1CCCC1COc1cn(-c2ccc(F)cc2)c2ccc(Cl)cc12 (stereo in doubt) [Compound 7b, (S)-1-Methyl-2-pyrrolidinylmethoxy-5-chloro-1-(4-fluorophenyl)-1H-indole oxalate]
IC50 ([1]; read-out: 5-HT2 binding ^3 H ketanserin, IC50, ^3 H-Ketanserin 0,5 nM, rat cortex membranes): 8.2 nM
IC50 [2, 4]: 18 nM

CN(C)CCCc1cn(-c2ccc(F)cc2)c2ccc(Cl)cc12 [Compound 3a, N,N-Dimethyl-3-[5-chloro-1-(4-fluorophenyl)-3-1H-indolyl]propylamine fumarate]
IC50 [1, 3]: 19 nM
IC50 [2, 4]: 42 nM

CN(CCCc1cn(-c2ccc(F)cc2)c2ccc(Cl)cc12)CCN1CCNC1=O [Compound 3b, 1-[2-[[3-[5-chloro-1-(4-fluorophenyl)-3-1H-indolyl]propyl]methylamino]ethyl]-2-imidazolidinone fumarate]
IC50 [1, 3]: 7.8 nM
IC50 [2, 4]: 190 nM

Fc1ccc(-n2cc(CCCN3CCOCC3)c3cc(Cl)ccc32)cc1 [Compound 3c, 5-Chloro-1-(4-fluorophenyl)-3-[3-(4-morpholinyl)propyl]-1H-indole maleate]
IC50 [1, 3]: 310 nM
IC50 [2, 4]: 26 nM

CN(C)CCOc1cn(-c2ccc(F)cc2)c2ccc(Cl)cc12 [Compound 4a, N,N-Dimethyl-2-[5-chloro-1-(4-fluorophenyl)-3-1H-indolyloxy]ethylamine sesqui fumarate]
IC50 [1, 3]: 4.2 nM
IC50 [2, 4]: 2.9 nM

CN(CCOc1cn(-c2ccc(F)cc2)c2ccc(Cl)cc12)CCN1CCNC1=O [Compound 4b, 1-[2-[[2-[5-chloro-1-(4-fluorophenyl)-3-1H-indolyloxy]ethyl]methylamino]ethyl]-2-imidazolidinone Maleate]
IC50 [1, 3]: 0.88 nM
IC50 [2, 4]: 5.8 nM

C#CCN(CCOc1cn(-c2ccc(F)cc2)c2ccc(Cl)cc12)CCN1CCNC1=O [Compound 4d, 1-[2-[[2-[5-Chloro-1-(4-fluorophenyl)-3-1H-indolyloxy]ethyl](3-propynyl)amino]ethyl]-2-imidazolidinone oxalate]
IC50 [1, 3]: 220 nM
IC50 [2, 4]: 190 nM

Fc1ccc(-n2cc(OCCN3CCCCC3)c3cc(Cl)ccc32)cc1 [Compound 4e, 5-Chloro-1-(4-fluorophenyl)-3-[2-(1-piperidinyl)ethoxy]-1H-indole]
IC50 [1, 3]: 5.9 nM
IC50 [2, 4]: 2.3 nM

Fc1ccc(-n2cc(OCCN3CCOCC3)c3cc(Cl)ccc32)cc1 [Compound 4f, 5-Chloro-1-(4-fluorophenyl)-3-[2-(4-morpholinyl)ethoxy]-1H-indole maleate]
IC50 [1, 3]: 48 nM
IC50 [2, 4]: 27 nM

CN(CCOc1cn(-c2ccc(F)cc2)c2cc(Cl)ccc12)CCN1CCNC1=O [Compound 4h, 1-[2-[[2-[6-chloro-1-(4-fluorophenyl)-3-1H-indolyloxy]ethyl]methylamino]ethyl]-2-imidazolidinone]
IC50 [1, 3]: 2 nM
IC50 [2, 4]: 200 nM

CC(C)N1CCN(CCN(C)CCOc2cn(-c3ccc(F)cc3)c3cc(Cl)ccc23)C1=O [Compound 4i, 1-[2-[[2-[6-Chloro-1-(4-fluorophenyl)-3-1H-indolyloxy]ethyl]methylamino]ethyl]-3-(2-propyl)-2-imidazolidinone oxalate]
IC50 [1, 3]: 6.3 nM
IC50 [2, 5]: 120 nM

CN(C)CCOc1cn(-c2ccc(F)cc2)c2cc(Cl)ccc12 [Compound 4j, N,N-Dimethyl-2-[6-chloro-1-(4-fluorophenyl)-3-1H-indolyloxy]ethylamine]
IC50 [1, 3]: 17 nM
IC50 [2, 4]: 63 nM

O=C1NCCN1CCC1CCN(CCOc2cn(-c3ccc(F)cc3)c3ccc(Cl)cc23)CC1 [Compound 4k, 1-[2-[1-[2-[5-Chloro-1-(4-fluorophenyl)-3-1H-indolyloxy]ethyl]-4-piperidinyl]ethyl]-2-imidazolidinone]
IC50 [1, 3]: 21 nM
IC50 [2, 4]: 2.6 nM

CNC(=O)C1CCN(CCOc2cn(-c3ccc(F)cc3)c3ccc(Cl)cc23)CC1 [Compound 4n, N-methyl-1-[2-[5-chloro-1-(4-fluorophenyl)-3-1H-indolyloxy]ethyl]4-piperidinecarboxamide]
IC50 [1, 3]: 28 nM
IC50 [2, 4]: 4.7 nM

Fc1ccc(-n2cc(OCCN3CCCC3)c3ccc(Cl)cc32)cc1 [Compound 4o, 6-Chloro-1-(4-fluorophenyl)-2-(1-pyrrolidinyl)ethoxy-1H-indole]
IC50 [1]: 30 nM
IC50 [2, 4]: 23 nM

Fc1ccc(-n2cc(OCCN3CCCCC3)c3ccc(Cl)cc32)cc1 [Compound 4p, 6-Chloro-1-(4-fluorophenyl)-2-(1-piperidinyl)ethoxy-1H-indole]
IC50 [1]: 35 nM
IC50 [2, 4]: 17 nM

CN(C)CCSc1cn(-c2ccc(F)cc2)c2ccc(Cl)cc12 [Compound 4q, N,N-Dimethyl-2-[5-chloro-1-(4-fluorophenyl)-3-1H-indolylthio]ethylamine hydrochloride]
IC50 [1, 3]: 43 nM
IC50 [2, 5]: 140 nM

CN(CCSc1cn(-c2ccc(F)cc2)c2ccc(Cl)cc12)CCN1CCNC1=O [Compound 4r, 1-[2-[[2-[5-Chloro-1-(4-fluorophenyl)-3-1H-indolylthio]ethyl]methylamino]ethyl]-2-imidazolidinone]
IC50 [1, 3]: 86 nM
IC50 [2]: 770 nM

CN(CCN1CCNC1=O)Cc1cn(-c2ccc(F)cc2)c2ccc(Cl)cc12 [Compound 4s, 1-[2-[[5-chloro-1-(4-fluorophenyl)-3-1H-indolylmethyl]methylamino]ethyl]-2-imidazolidinone]
IC50 [1, 3]: 20 nM
IC50 [2, 4]: 22 nM

CN(CCCN1CCNC1=O)CCc1cn(-c2ccc(F)cc2)c2ccc(Cl)cc12 [Compound 4u, 1-[3-[[2-[5-chloro-1-(4-fluorophenyl)-3-1H-indolyl]ethyl]methylamino]propyl]-2-imidazolidinone hydrochloride]
IC50 [1, 3]: 1 nM
IC50 [2, 5]: 19 nM

CN(CCc1cn(-c2ccc(F)cc2)c2ccc(Cl)cc12)CCN1CCNC1=O [Compound 4v, 1-[2-[[2-[5-chloro-1-(4-fluorophenyl)-3-1H-indolyl]ethyl]methylamino]ethyl]-2-imidazolidinone maleate]
IC50 [1, 3]: 5.3 nM
IC50 [2, 4]: 25 nM

C[C@@H](COc1cn(-c2ccc(F)cc2)c2ccc(Cl)cc12)N(C)C [Compound 6a, (S)-N, N-Dimethyl-2-[5-chloro-1-(4-fluorophenyl) -3-1H-indolyloxy]-1-methylethylamine Oxalate]
IC50 [1, 3]: 7.4 nM
IC50 [2, 5]: 5.5 nM

C[C@H](COc1cn(-c2ccc(F)cc2)c2ccc(Cl)cc12)N(C)C [Compound 6b, (R)-N,N-Dimethyl-2-[5-chloro-1-(4-fluorophenyl)-3-1H-indolyloxy]-1-methylethylamine oxalate]
IC50 [1, 3]: 21 nM
IC50 [2, 5]: 37 nM

CN(C)C(C)(C)COc1cn(-c2ccc(F)cc2)c2ccc(Cl)cc12 [Compound 6c, N,N-Dimethyl-1,1-dimethyl-2-[5-chloro-1-(4-fluorophenyl)-3-1H-indolyloxy]ethylamine oxalate]
IC50 [1, 3]: 42 nM
IC50 [2, 5]: 330 nM

CN1CCC[C@H]1COc1cn(-c2ccc(F)cc2)c2ccc(Cl)cc12 [Compound 7a, (S)-1-Methyl-2-pyrrolidinylmethoxy-5-chloro-1-(4-fluorophenyl)-1H-indole Oxalate]
IC50 [1, 3]: 18 nM
IC50 [2, 4]: 30 nM

O=C1NCCN1CCN1CCC[C@@H]1COc1cn(-c2ccc(F)cc2)c2ccc(Cl)cc12 [Compound 8a, (R)-1-[2-[2-[5-Chloro-1-(4-fluorophenyl)-3-1H-indolyloxymethyl]-1-pyrrolidinyl]ethyl]-2-imidazolidinone Oxalate]
IC50 [1, 3]: 49 nM
IC50 [2, 5]: 8.1 nM

C[C@@H](CN(C)CCOc1cn(-c2ccc(F)cc2)c2ccc(Cl)cc12)N1CCNC1=O [Compound 8b, (S)-1-[1-methyl-2-[[2-[5-chloro-1-(4-fluorophenyl)-3-1H-indolyloxy]ethyl]methylamino]ethyl]-2-imidazolidinone oxalate]
IC50 [1, 3]: 220 nM
IC50 [2, 5]: 35 nM

CN(C)CCOc1c(CO)n(-c2ccc(F)cc2)c2ccc(Cl)cc12 [Compound 9a, N,N-Dimethyl-2-[5-chloro-1-(4-fluorophenyl)-2-hydroxymethyl-3-1H-indolyloxy]ethylamine Hydrochloride]
IC50 [1]: 38 nM
IC50 [2, 5]: 430 nM

Cc1c(OCCN(C)C)c2cc(Cl)ccc2n1-c1ccc(F)cc1 [Compound 10, N,N-Dimethyl-2-[5-chloro-1-(4-fluorophenyl)-2-methyl-3-1H-indolyloxy]ethylamine Oxalate]
IC50 [1, 3]: 11 nM
IC50 [2, 5]: 83 nM

CN(C)Cc1cn(-c2ccc(F)cc2)c2ccc(Cl)cc12 [Compound 13a, N,N-Dimethyl-[5-chloro-1-(4-fluorophenyl)-3-1H-indolyl]methylamine Maleate]
IC50 [1, 3]: 12 nM
IC50 [2, 4]: 19 nM

CNCc1cn(-c2ccc(F)cc2)c2ccc(Cl)cc12 [Compound 13b, N-methyl-[5-chloro-1-(4-fluorophenyl)-3-1H-indolylmethyl]amine hydrochloride]
IC50 [1, 3]: 21 nM
IC50 [2, 5]: 33 nM

CN(C)CCc1cn(-c2ccc(F)cc2)c2ccc(Cl)cc12 [Compound 14b, N,N-Dimethyl-2-(5-chloro-1-(4-fluorophenyl)-3-1H-indolyl)ethylamine maleate]
IC50 [1, 3]: 8.9 nM
IC50 [2, 5]: 38 nM

Fc1ccc(-n2cc(CCN3CCOCC3)c3cc(Cl)ccc32)cc1 [Compound 14c, 5-chloro-1-(4-fluorophenyl)-3-(2-(4-morpholinyl)ethyl)-1H-indole fumarate]
IC50 [1, 3]: 22 nM
IC50 [2]: 54 nM

CNCCc1cn(-c2ccc(F)cc2)c2ccc(Cl)cc12 [Compound 15a, N-methyl-2-(5-chloro-1-(4-fluorophenyl)-3-1H-indolyl)ethylamine Maleate]
IC50 [1, 3]: 17 nM
IC50 [2]: 24 nM
